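Tested at 5 concentrations; 48 h exposure; 96-well plates; endpoints linearly interpolated, else capped at highest concentration. Definition used: TGI = concentration required for complete inhibition of growth.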
Key:
Assay in all cases: NCI-60 cell line screen, 48 h
786-0 renal = test system: 786-0 renal
A498 renal = test system: A498 renal
A549 NSCLC = test system: A549 NSCLC
ACHN renal = test system: ACHN renal
CAKI-1 renal = test system: CAKI-1 renal
CCRF-CEM leukemia = test system: CCRF-CEM leukemia
COLO 205 colon = test system: COLO 205 colon
DLD-1 colon = test system: DLD-1 colon
DMS 273 small cell lung = test system: DMS 273 small cell lung
EKVX NSCLC = test system: EKVX NSCLC
HCC-2998 colon = test system: HCC-2998 colon
HCT-116 colon = test system: HCT-116 colon
HCT-15 colon = test system: HCT-15 colon
HL-60(TB) leukemia = test system: HL-60(TB) leukemia
HOP-18 NSCLC = test system: HOP-18 NSCLC
HOP-62 NSCLC = test system: HOP-62 NSCLC
HOP-92 NSCLC = test system: HOP-92 NSCLC
IGROV1 ovarian = test system: IGROV1 ovarian
K-562 leukemia = test system: K-562 leukemia
KM12 colon = test system: KM12 colon
KM20L2 colon = test system: KM20L2 colon
LOX IMVI melanoma = test system: LOX IMVI melanoma
LXFL 529 NSCLC = test system: LXFL 529 NSCLC
M14 melanoma = test system: M14 melanoma
M19-MEL melanoma = test system: M19-MEL melanoma
MALME-3M melanoma = test system: MALME-3M melanoma
MOLT-4 leukemia = test system: MOLT-4 leukemia
NCI-H226 lung = test system: NCI-H226 lung
NCI-H23 lung = test system: NCI-H23 lung
NCI-H460 lung = test system: NCI-H460 lung
NCI-H522 lung = test system: NCI-H522 lung
OVCAR-3 ovarian = test system: OVCAR-3 ovarian
OVCAR-4 ovarian = test system: OVCAR-4 ovarian
OVCAR-5 ovarian = test system: OVCAR-5 ovarian
OVCAR-8 ovarian = test system: OVCAR-8 ovarian
RXF 393 renal = test system: RXF 393 renal
SF-268 CNS = test system: SF-268 CNS
SF-295 CNS = test system: SF-295 CNS
SF-539 CNS = test system: SF-539 CNS
SK-MEL-2 melanoma = test system: SK-MEL-2 melanoma
SK-MEL-28 melanoma = test system: SK-MEL-28 melanoma
SK-MEL-5 melanoma = test system: SK-MEL-5 melanoma
SK-OV-3 ovarian = test system: SK-OV-3 ovarian
SN12C renal = test system: SN12C renal
SNB-19 CNS = test system: SNB-19 CNS
SNB-75 CNS = test system: SNB-75 CNS
SNB-78 CNS = test system: SNB-78 CNS
SR leukemia = test system: SR leukemia
SW-620 colon = test system: SW-620 colon
TK-10 renal = test system: TK-10 renal
U251 CNS = test system: U251 CNS
UACC-257 melanoma = test system: UACC-257 melanoma
UACC-62 melanoma = test system: UACC-62 melanoma
UO-31 renal = test system: UO-31 renal
XF 498 CNS = test system: XF 498 CNS
DMS 114 small cell lung = test system: DMS 114 small cell lung
HT29 colon = test system: HT29 colon
RPMI-8226 leukemia = test system: RPMI-8226 leukemia

Work on `COc1ccc(Nc2nc3c(N)cc(C(F)(F)F)cc3nc2-c2ccccc2)cc1OC` yielded a TGI (786-0 renal) of 28.9 µM, a TGI (A498 renal) of 70 µM and a TGI (A549 NSCLC) of 66.1 µM. For the same compound, the TGI (ACHN renal) was 27.5 µM, the TGI (CAKI-1 renal) was 42.5 µM and the TGI (CCRF-CEM leukemia) was greater than 100 µM. The TGI (COLO 205 colon) was greater than 100 µM, the TGI (DLD-1 colon) was greater than 100 µM and the TGI (DMS 273 small cell lung) was greater than 100 µM. For the same compound, the TGI (EKVX NSCLC) was 59.7 µM, the TGI (HCC-2998 colon) was 89.6 µM and the TGI (HCT-116 colon) was greater than 100 µM. The TGI (HCT-15 colon) was greater than 100 µM, the TGI (HL-60(TB) leukemia) was greater than 100 µM and the TGI (HOP-18 NSCLC) was 43.8 µM. It also gave a TGI (HOP-62 NSCLC) of 57.8 µM, a TGI (HOP-92 NSCLC) of 46.3 µM and a TGI (IGROV1 ovarian) of 69.7 µM. It also gave a TGI (K-562 leukemia) greater than 100 µM, a TGI (KM12 colon) greater than 100 µM and a TGI (KM20L2 colon) greater than 100 µM. For the same compound, the TGI (LOX IMVI melanoma) was greater than 100 µM, the TGI (LXFL 529 NSCLC) was 46.4 µM and the TGI (M14 melanoma) was greater than 100 µM. It also gave a TGI (M19-MEL melanoma) of 60.4 µM, a TGI (MALME-3M melanoma) of 38.5 µM and a TGI (MOLT-4 leukemia) greater than 100 µM. The TGI (NCI-H226 lung) was 57.9 µM, the TGI (NCI-H23 lung) was greater than 100 µM and the TGI (NCI-H460 lung) was greater than 100 µM. For the same compound, the TGI (NCI-H522 lung) was 43.9 µM, the TGI (OVCAR-3 ovarian) was 42.9 µM and the TGI (OVCAR-4 ovarian) was 33.8 µM. For the same compound, the TGI (OVCAR-5 ovarian) was greater than 100 µM, the TGI (OVCAR-8 ovarian) was 43.2 µM and the TGI (RXF 393 renal) was 50.2 µM. It also gave a TGI (SF-268 CNS) of 71.1 µM, a TGI (SF-295 CNS) of 44.8 µM and a TGI (SF-539 CNS) of 39.6 µM. It also gave a TGI (SK-MEL-2 melanoma) of 69.1 µM, a TGI (SK-MEL-28 melanoma) greater than 100 µM and a TGI (SK-MEL-5 melanoma) of 62.3 µM. For the same compound, the TGI (SK-OV-3 ovarian) was 28.6 µM, the TGI (SN12C renal) was 47.1 µM and the TGI (SNB-19 CNS) was 53.8 µM. For the same compound, the TGI (SNB-75 CNS) was 17.5 µM, the TGI (SNB-78 CNS) was 75.7 µM and the TGI (SR leukemia) was greater than 100 µM. The TGI (SW-620 colon) was greater than 100 µM, the TGI (TK-10 renal) was 47.3 µM and the TGI (U251 CNS) was 42.8 µM. The TGI (UACC-257 melanoma) was 63.9 µM, the TGI (UACC-62 melanoma) was 44.6 µM and the TGI (UO-31 renal) was 95.3 µM. The TGI (XF 498 CNS) was 33.1 µM.
`CCOP1(=O)C=CC(Cl)=C(C)C1` (stereo unspecified) showed a TGI (786-0 renal) of 30.6 µM, a TGI (A498 renal) greater than 71.1 µM and a TGI (A549 NSCLC) greater than 100 µM. For the same compound, the TGI (ACHN renal) was 24.8 µM, the TGI (CAKI-1 renal) was 23.7 µM and the TGI (CCRF-CEM leukemia) was 12 µM. The TGI (COLO 205 colon) was 44.4 µM, the TGI (DLD-1 colon) was 25.4 µM and the TGI (DMS 114 small cell lung) was 39.4 µM. The TGI (EKVX NSCLC) was greater than 56.8 µM, the TGI (HCC-2998 colon) was 29.6 µM and the TGI (HCT-116 colon) was 44.7 µM. For the same compound, the TGI (HCT-15 colon) was 30.1 µM, the TGI (HL-60(TB) leukemia) was 15.3 µM and the TGI (HOP-18 NSCLC) was 31.2 µM. For the same compound, the TGI (HOP-62 NSCLC) was 70 µM, the TGI (HOP-92 NSCLC) was 34.3 µM and the TGI (HT29 colon) was 28.5 µM. The TGI (IGROV1 ovarian) was 55.1 µM, the TGI (K-562 leukemia) was 20.4 µM and the TGI (KM12 colon) was 33.5 µM. For the same compound, the TGI (KM20L2 colon) was 31.8 µM, the TGI (LOX IMVI melanoma) was 39 µM and the TGI (LXFL 529 NSCLC) was 25.9 µM. For the same compound, the TGI (M14 melanoma) was 29 µM, the TGI (M19-MEL melanoma) was greater than 57.3 µM and the TGI (MALME-3M melanoma) was 29 µM. The TGI (MOLT-4 leukemia) was 19.9 µM, the TGI (NCI-H226 lung) was greater than 100 µM and the TGI (NCI-H23 lung) was 18.1 µM. For the same compound, the TGI (NCI-H460 lung) was 74.3 µM, the TGI (NCI-H522 lung) was 17.3 µM and the TGI (OVCAR-3 ovarian) was 35 µM. For the same compound, the TGI (OVCAR-4 ovarian) was 30.7 µM, the TGI (OVCAR-5 ovarian) was 50.2 µM and the TGI (OVCAR-8 ovarian) was 71.6 µM. The TGI (RPMI-8226 leukemia) was greater than 59.4 µM, the TGI (RXF 393 renal) was 14.3 µM and the TGI (SF-268 CNS) was 56.9 µM. For the same compound, the TGI (SF-295 CNS) was greater than 100 µM, the TGI (SF-539 CNS) was 43.6 µM and the TGI (SK-MEL-2 melanoma) was 27.5 µM. For the same compound, the TGI (SK-MEL-28 melanoma) was 30.3 µM, the TGI (SK-MEL-5 melanoma) was 36.5 µM and the TGI (SK-OV-3 ovarian) was greater than 100 µM. The TGI (SN12C renal) was 16.3 µM, the TGI (SNB-19 CNS) was greater than 100 µM and the TGI (SNB-75 CNS) was 19.9 µM. For the same compound, the TGI (SNB-78 CNS) was 47.5 µM, the TGI (SW-620 colon) was 30.4 µM and the TGI (TK-10 renal) was 34.2 µM. The TGI (U251 CNS) was 65.3 µM, the TGI (UACC-257 melanoma) was 39.8 µM and the TGI (UACC-62 melanoma) was 32.2 µM. The TGI (UO-31 renal) was greater than 71.5 µM and the TGI (XF 498 CNS) was 34.3 µM.

From PubChem BioAssay (NCI)
